Experimental data from patent publication US20080262021A1, “1H-Imidazoquinoline Derivatives as Prote In Kinase Inhibitors” (NOVARTIS AG, priority 2003, published 2008).

Experiments:
Type in all cases: biochemical
S6K1 = target: T1, S6K1 (Homo sapiens, UniProt P23443, T412E); assay: S6K1 kinase inhibition (S6K1ΔCT/T412E, TR-FRET); conditions: read-out: IC50 Range Class, inhibition of S6K1
T1 construct: His (N); made in house; host or cells: Sf9 insect cells (baculovirus, pFastBacHT A), co-infected with GST-PDK1 virus
From the text: The DNA fragment encoding S6K1ΔCT/T412E is subcloned to the baculovirus donor vector pFastBacHT A to generate a recombinant baculovirus that expresses S6K1ΔCT/T412E. Transfer vectors for S6K1ΔCT/T412E are transfected into the DH10Bac cell line (GIBCO). After selection of white colonies, they are used for viral DNA (bacmid) preparation. Sf9 cells (American Type Culture Collection) cells are then transfected with the viral DNA using Cellfectin reagent. Virus-containing media is collected from the transfected cell culture and is used for infection to increase its titer. For large-scale protein expression, Sf9 cells are co-infected with S6K1ΔCT/T412E and GST-PDK1 virus-containing media with MOI of 2.25 and 1, respectively. After 3 days, the cells expressing the recombinant enzyme are resuspended in the culture medium with a sterilized cell scraper and harvested by centrifugation. The cells are resuspended in 5 volumes of cell pellet of Extraction Buffer (50 mM MOPS pH 7.0, containing 300 mM NaCl, 0.05% Tween-20, 10 mM sodium pyrophosphate, 50 mM β-glycerophosphate, 0.2 mM cantharidic acid and 1× complete-EDTA protease inhibitor cocktail) and then disrupted with 15 strokes of a Dounce homogenizer followed by sonication on ice. The homogenate is centrifuged at 4° C. for 60 minutes at 48,000×g. The supernatant is clarified with a 5 μm filter and subjected to purification with TALON Superflow Resin (Clontech). First, 1 mL of TALON resin per 5 mL of the supernatant was equilibrated with the Extraction Buffer and resuspended in the supernatant followed by gentle agitation for 20 minutes at RT. After centrifugation at 700×g for 5 minutes, supernatant is removed. The resin is washed twice by adding 10 bed volumes of the Extraction Buffer, agitating for 10 minutes at RT, centrifugating at 700×g for 5 minutes, and discarding the supernatant. The resin is then resuspended with the same volume of the Extraction Buffer and transferred to an disposable chromatography column. The packed column is washed once with 10 bed volumes of the Extraction Buffer and additionally with the same volume of Wash Buffer (5 mM imidazole in the Extraction Buffer). Then, the His-tagged S6K1ΔCT/T412E is eluted with four bed volumes of Elution Buffer (150 mM imidazole in the Extraction Buffer).
Measure of enzyme activity: The kinase assay with purified S6K1ΔCT/T412E is performed with TR-FRET (Time-Resolved Fluorescene Resonance Energy Transfer) technology. First, ATP-dependent phosphorylation of the biotinylated substrate peptide corresponding to residues 229-242 of S6 ribosomal protein (Biot-AKRRRLSSLRASTS) is carried out for 1 hour at 37° C. in […] under humidified air. The kinase reaction mixture of the final volume of 9 μL contains 2.57 ng of purified S6K1ΔCT/T412E protein, 50 mM MOPS (pH 7.0), 0.1 mM EGTA, 0.01 mM Na3VO4, 0.05% Tween-20, 0.01% BSA, 1 mM DTT, 10 mM MgCl2, 3 μM ATP, 0.5 μM biotinylated substrate peptide, 1% of DMSO or the text compounds of the formula (I) at the required concentration in 1% DMSO. For measurement of background, 20 mM of EDTA is added to the reaction mixture. […] Phosphorylated peptide indicative of kinase activity is quantitated by exciting the sample at 330 nm and comparing donor emission at 615 nm and acceptor emission at 665 nm by 2101 EnVision HTS multilabel plate reader (Perkin Elmer). […]

PKB = PKB (Homo sapiens, UniProt P31749); assay: PKB kinase inhibition (PDK1-activated GST-PKB, 33P peptide assay); conditions: read-out: IC50 Range Class, inhibition of PKB
Procedure: GST-PKB [100 ng, specific activity (SA): 0.2 nmole/mg/min.] is incubated for 30 minutes at room temperature (RT) with purified recombinant GST-PDK1 (1 ng, SA: 2 nmole/min./mg). The activation is performed as follows: 0.1 μg of GST-PDK1 (0.05 μL) and 10 μg of GST-PKB (0.45 μL) are mixed in a total volume of 0.75 μL containing 15 μM ATP, 3 mM MgCl2, 20 mM hepes (pH 7.6) for 30 minutes at RT. The reaction is subsequently stopped by adding 0.25 μL containing 30% gycerol (w/w) and 0.06 μL of 500 mM EDTA. 100-500 ng (0.01-0.05 μL) activated GST-PKB is incubated in a final volume of 30 μL with 10 μM of the RRPRTRSFS peptide, 10 mM Mg-acetate, 50 mM MOPS (PH 7.5), 1 mM DTT and 300 μg/mL BSA, 20 μM ATP (0.1 μCi γ-^33P-ATP). The reaction is carried out for 30 minutes at RT in the presence of either 1% DMSO or the text compound of the formula (I) at the required concentration in 1% DMSO. The reaction is terminated by the addition of 20 μL 125 mM EDTA. Thirty (30) μL of each sample is spotted onto P81 Whatman and the paper squares processed. See Ferrari and Thomas, Methods Enzymol, Vol. 200, pp. 159-169 (1991). IC50 values are calculated by linear regression analysis of the percentage inhibition of each compound in duplicate.

RET = target: T2, RET (Homo sapiens, UniProt P07949); assay: RET kinase inhibition (33P filter assay, GST-wtRET or GST-RET-Men2B); conditions: for IC50: read-out: IC50 Range Class, inhibition of RET
T2 construct: fused on or other part: N-terminal GST tag (from vector pFB-GSTX3)
Procedure: RET kinase inhibition is determined as follows: The baculovirus donor vector pFB-GSTX3 is used to generate a recombinant baculovirus that expresses the amino acid region 658-1072 (Swiss Prot No. Q9BTB0) of the intra-cytoplasmic kinase domain of human RET-Men2A which corresponds to the wild-type kinase domain of RET (wtRET) and RET-Men2B, which differs from the wtRET by the activating mutation in the activation loop M918T. The coding sequences for the cytoplasmic domain of wtRET and RET-Men2B are amplified by PCR from the plasmids pBABEpuro RET-Men2A and pBABEpuro RET-Men2B, respectively which are received from Dr. James Fagin, College of Medicine, University of Cincinnati. The amplified DNA fragments and the pFB-GSTX3 vector are made compatible for ligation by digestion with SaII and KpnI. Ligation of these DNA fragments results in the baculovirus donor plasmid pFB-GX3-RET-Men2A and pFB-GX3-RET-Men2B, respectively.
Production of virus: Transfer vectors containing the kinase domains are transfected into the DH10Bac cell line (GIBCO) and plated on selective agar plates. Colonies without insertion of the fusion sequence into the viral genome (carried by the bacteria) are blue. Single, white colonies are picked and viral DNA (bacmid) isolated from the bacteria by standard plasmid purification procedures. Sf9 cells or Sf21 (American Type Culture Collection) cells are then transfected in 25 cm^2 flasks with the viral DNA using Cellfectin reagent.
Determination of small scale protein expression in Sf9 cells: Virus-containing media is collected from the transfected cell culture and used for Infection to increase its titer. Virus-containing media obtained after two rounds of infection is used for large-scale protein expression. For large-scale protein expression 100 cm^2 round tissue culture plates are seeded with 5×10^7 cells/plate and infected with 1 mL of virus-containing media (approximately 5 MOls). After 3 days, the cells are scraped off the plate and centrifuged at 500 rpm for 5 minutes. Cell pellets from 10-20, 100 cm^2 plates, are re-suspended in 50 mL of ice-cold lysis buffer (25 mM tris-HCl, pH 7.5, 2 mM EDTA, 1% NP-40, 1 mM DTT, 1 mM P MSF). The cells are stirred on ice for 15 minutes and then centrifuged at 5,000 rpms for 20 minutes.
Purffication of GST-tagged proteins: The centrifuged cell lysate is loaded onto a 2 mL glutathione-sepharose column (Pharmacia) and washed 3× with 10 mL of 25 mM tris-HCl, pH 7.5, 2 mM EDTA, 1 mM DTT, 200 mM NaCl. The GST-tagged proteins are then eluted by 10 applications (1 mL each) of 25 mM tris-HCl, pH 7.5, 10 mM reduced-glutathione, 100 mM NaCl, 1 mM DTT, 10% glycerol and stored at −70° C.
Measure of enzyme activity: Tyrosine protein kinase assays with either purified GST-wtRET or GST-RET-Men2B protein are carried out in a final volume of 30 μL containing 15 ng of either GST-wtRET or GST-RET-Men2B protein, 20 mM tris-HCl, pH 7.5, 1 mM MnCl2, 10 mM MgCl2, 1 mM DTT, 3 μg/mL poly(Glu, Tyr) 4:1, 1% dimethyl sulfoxide (DMSO), 2.0 μM ATP (γ-[^33P]-ATP 0.1 μCi). The activity is assayed in the presence or absence of inhibitors, by measuring the Incorporation of ^33P from [γ^33P] ATP into poly(Glu, Tyr) 4:1. The assay is carried out in 96-well plates at ambient temperature for 15 minutes under conditions described below and terminated by the addition of 20 μL of 125 mM EDTA. […] Membranes are counted after drying at ambient temperature, mounting in Packard TopCount 96-well frame, and addition of 10 μL/well of Microscint™ (Packard). […]

PKB, sequence (P31749 whole entry): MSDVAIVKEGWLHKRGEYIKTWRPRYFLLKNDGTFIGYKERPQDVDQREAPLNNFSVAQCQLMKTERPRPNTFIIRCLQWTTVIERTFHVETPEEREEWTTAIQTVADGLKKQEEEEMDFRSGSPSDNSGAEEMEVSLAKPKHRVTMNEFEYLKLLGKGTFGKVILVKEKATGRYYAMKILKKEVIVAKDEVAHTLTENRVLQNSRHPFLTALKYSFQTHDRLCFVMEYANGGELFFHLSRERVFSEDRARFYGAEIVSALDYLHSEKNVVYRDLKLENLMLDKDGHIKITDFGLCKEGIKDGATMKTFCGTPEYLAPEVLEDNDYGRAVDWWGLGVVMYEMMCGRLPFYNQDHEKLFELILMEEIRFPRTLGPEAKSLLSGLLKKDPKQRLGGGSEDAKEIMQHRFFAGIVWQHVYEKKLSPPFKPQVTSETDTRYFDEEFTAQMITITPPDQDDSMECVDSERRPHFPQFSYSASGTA
T1 sequence (P23443 1-421 T412E): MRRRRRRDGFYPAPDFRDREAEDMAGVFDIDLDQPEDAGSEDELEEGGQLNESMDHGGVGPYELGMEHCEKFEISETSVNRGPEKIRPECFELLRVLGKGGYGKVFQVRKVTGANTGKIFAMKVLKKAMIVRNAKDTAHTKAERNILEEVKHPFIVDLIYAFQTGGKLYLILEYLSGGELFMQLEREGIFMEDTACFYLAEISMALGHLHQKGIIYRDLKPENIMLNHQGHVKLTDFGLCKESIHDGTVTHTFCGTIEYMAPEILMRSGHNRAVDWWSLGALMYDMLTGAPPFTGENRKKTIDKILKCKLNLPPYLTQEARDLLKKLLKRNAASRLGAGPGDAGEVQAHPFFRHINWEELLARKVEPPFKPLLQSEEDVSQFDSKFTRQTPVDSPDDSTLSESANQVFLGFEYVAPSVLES
T2 sequence (P07949 1-1072 isoform P07949-2): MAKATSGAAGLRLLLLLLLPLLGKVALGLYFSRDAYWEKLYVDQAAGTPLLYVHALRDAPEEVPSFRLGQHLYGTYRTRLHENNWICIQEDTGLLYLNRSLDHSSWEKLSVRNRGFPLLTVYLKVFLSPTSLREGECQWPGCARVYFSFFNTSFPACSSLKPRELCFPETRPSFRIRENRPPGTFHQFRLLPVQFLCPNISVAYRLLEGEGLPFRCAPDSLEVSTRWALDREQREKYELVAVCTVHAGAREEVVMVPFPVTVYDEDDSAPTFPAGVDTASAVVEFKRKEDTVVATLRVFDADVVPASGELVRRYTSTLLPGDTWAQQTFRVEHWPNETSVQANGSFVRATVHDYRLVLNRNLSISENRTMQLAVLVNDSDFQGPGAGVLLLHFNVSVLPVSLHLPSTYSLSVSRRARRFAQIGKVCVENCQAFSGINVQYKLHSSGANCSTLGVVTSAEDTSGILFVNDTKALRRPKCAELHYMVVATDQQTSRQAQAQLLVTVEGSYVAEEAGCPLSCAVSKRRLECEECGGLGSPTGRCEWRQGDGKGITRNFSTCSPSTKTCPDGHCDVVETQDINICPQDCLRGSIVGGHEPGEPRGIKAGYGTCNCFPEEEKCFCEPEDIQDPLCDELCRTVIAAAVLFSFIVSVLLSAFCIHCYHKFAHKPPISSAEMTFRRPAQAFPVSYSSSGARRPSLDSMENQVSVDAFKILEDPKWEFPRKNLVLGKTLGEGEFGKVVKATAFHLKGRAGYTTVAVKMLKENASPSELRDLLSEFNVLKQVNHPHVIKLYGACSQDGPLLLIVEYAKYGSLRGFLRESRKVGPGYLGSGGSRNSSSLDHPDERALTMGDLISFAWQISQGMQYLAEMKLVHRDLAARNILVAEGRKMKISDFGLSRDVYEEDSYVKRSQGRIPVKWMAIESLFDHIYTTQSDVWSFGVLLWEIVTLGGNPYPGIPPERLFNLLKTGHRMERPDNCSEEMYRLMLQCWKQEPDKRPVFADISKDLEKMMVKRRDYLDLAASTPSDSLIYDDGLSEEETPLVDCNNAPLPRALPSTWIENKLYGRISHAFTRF

Row | SMILES | IC50 (PKB) | IC50 (RET) | other results
1 | Cc1cc(CCN)ccc1-n1cnc2cnc3ccc(-c4ccc5[nH]ccc5c4)cc3c21 [Example 22, 2-{4-[8-(1H-indol-5-yl)-Imidazo[4,5-c]quinolin-1-yl]-3-methyl-phenyl}-ethylamine] |  |  | IC50 (S6K1): ≤ 500 nM
2 | NCCc1ccc(-n2cnc3cnc4ccc(-c5ccc(O)cc5)cc4c32)c(C(F)(F)F)c1 [Example 30, 4-{1-[4-(2-Amino-ethyl)-2-trifluoromethyl-phenyl]-1H-imidazo[4,5-c]quinolin-8-yl}-phenol] |  |  | IC50 (S6K1): ≤ 500 nM
3 | NCCc1ccc(-n2cnc3cnc4cc(F)c(-c5cccs5)cc4c32)cc1 [Example 61, 2-[4-(7-Fluoro-8-thiophen-2-yl-imidazo[4,5-c]quinolin-1-yl)-phenyl]-ethylamine] | ≤ 500 nM |  | 
4 | NCCc1ccc(-n2cnc3cnc4cc(F)c(-c5ccc6[nH]ccc6c5)cc4c32)cc1 [Example 64, 2-{4-[7-Fluoro-8-(1H-indol-5-yl)-imidazo[4,5-c]quinolin-1-yl]-phenyl}-ethylamine] | ≤ 500 nM |  | 
5 | NCCCc1ccc(-n2cnc3cnc4cc(F)c(-c5ccsc5)cc4c32)cc1 [Example 74, 3-[4-(7-Fluoro-8-thiophen-3-yl-imidazo[4,5-c]quinolin-1-yl)-phenyl]-propylamine] | ≤ 500 nM |  | 
6 | NCCc1ccc(-n2cnc3cnc4cc(F)c(-c5ccc6[nH]ccc6c5)cc4c32)c(Cl)c1 [Example 83, 2-{3-Chloro-4-[7-fluoro-8-(1H-indol-5-yl)-imidazo[4,5-c]quinolin-1-yl]-phenyl}-ethylamine] |  |  | IC50 (S6K1): ≤ 500 nM
7 | NCCc1ccc(-n2cnc3cnc4cc(Cl)c(-c5ccsc5)cc4c32)cc1 [Example 90, 2-[4-(7-Chloro-8-thiophen-3-yl-imidazo[4,5-c]quinolin-1-yl)-phenyl]-ethylamine] | ≤ 500 nM |  | 
8 | COc1ccc(OC)c(-c2ccc3ncc4ncn(-c5ccccc5F)c4c3c2)c1 [Example 119, 8-(2,5-Dimethoxy-phenyl)-1-(2-fluoro-phenyl)-1H-imidazo[4,5-c]quinoline] |  | 500 to 1000 nM | 
9 | Fc1ccccc1-n1cnc2cnc3ccc(-c4ccncc4)cc3c21 [Example 125, 1-(2-Fluoro-phenyl)-8-pyridin-4-yl-1H-imidazo[4,5-c]quinoline] |  |  | IC50 Range Class, inhibition of RET (RET): B/A
10 | Oc1ccc(-c2ccc3ncc4ncn(-c5ccccc5F)c4c3c2)cc1 [Example 127, 4-[1-(2-Fluoro-phenyl)-1H-imidazo[4,5-c]quinolin-8-yl]-phenol] |  | ≤ 500 nM | 
11 | CN(C)Cc1cccc(-c2ccc3ncc4ncn(-c5ccccc5F)c4c3c2)c1 [Example 129, {3-[1-(2-Fluoro-phenyl)-1H-imidazo[4,5-c]quinolin-8-yl]-benzyl}-dimethyl-amine] |  | ≤ 500 nM | 
12 | c1ccc(-n2cnc3cnc4ccc(-c5cccc(N6CCNCC6)c5)cc4c32)cc1 [Example 134, 1-Phenyl-8-(3-piperazin-1-yl-phenyl)-1H-imidazo[4,5-c]quinoline] |  | 500 to 1000 nM | 
